Measured values as given in patent US20230115945A1, “AMINOPYRIMIDINE COMPOUNDS” (TYRA BIOSCIENCES, INC., priority 2019, published 2023).

Tests used:
[1] = tested on: KG-1 cells (Acute Myeloid Leukemia, FGFR1OP2-FGFR1 fusion); assay: Cancer cell line cell viability assay, KG-1; type: cell-based; conditions: Homo sapiens, 72 hours, Cell Titer-Glo 2.0, read-out: Cancer Cell Viability Assays KG1 (IC50 nM)
Excerpt: To detect the change of intracellular ATP by Cell Titer-Glo® and to evaluate the inhibitory effect of the compounds on cancer cell lines by determining the in vitro IC50 value of the compounds.
Cell Titer-Glo® 2.0 Luminescent cell viability assay reagent was purchased from Promega (Madison, Wis.). RT112/84, SNU-16, and KG-1 cell lines were purchased from American Type Culture Collection (Manassas, Va.). UM-UC-14 cell line was purchased from Sigma (St. Louis, Mo.). RT112/84, UM-UC-14, SNU-16, and KG-1 cells were cultured in RPMI1640 media supplemented with 10% fetal bovine serum. Cultures were maintained at 37° C. in a humidified atmosphere of 5% CO2 and 95% air.
Cell Viability Assay Procedure: Cells were plated in 96-well clear bottom/white plates (Corning #3903) at 10,000 cells/well in 100 μl of media, incubated overnight. The next day, test compound DMSO stock solutions were made at 10 mM and 2 μM final concentration. Compounds were then added to cells in a 9-dose, 10-fold dilution series starting at 30 μM with an HP 300e Digital Dispenser (each dose was applied in triplicate). DMSO was backfilled to each well up to 301 nL total volume of test compound+DMSO, and a total of 301 nL DMSO was added to a control/no test compound well in triplicate. The cells in cell culture plates were incubated with the compounds at 37° C. and 5% CO2 for 72 hours. Then 50 μl of Cell Titer Glo 2.0 reagent was added to each well of the cell culture plates. The contents were covered from light and mixed on an orbital shaker at room temperature for 10 min. Luminescence was recorded by a Synergy H1 Microplate Reader (Biotek, Winooski, Vt.). Cells were assessed as a percentage of DMSO only treated control cells. Curves were plotted and IC50 values were calculated using the GraphPad Prism 8 program based on a sigmoidal dose-response equation (4 parameter).

[2] = tested on: RT112/84 cells (Bladder Cancer, FGFR3-TACC3 fusion); assay: Cancer cell line cell viability assay, RT112/84; type: cell-based; conditions: Homo sapiens, 72 hours, Cell Titer-Glo 2.0, read-out: Cancer Cell Viability Assays RT112/84 (IC50 nM)
In short: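 RT112/84 or SNU-16 cells (10,000/well) treated 72 h at 37° C. with a 9-dose, 10-fold series from 30 μM, in triplicate. Viability by CellTiter-Glo 2.0 luminescence relative to DMSO controls; IC50 from 4-parameter sigmoidal fit.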

FGFR1 = target: T1, FGFR1 (Homo sapiens, UniProt P11362); assay: Kinase binding assay (Kd), FGFR1; conditions: 11-point 3-fold dilution, qPCR readout
T1 construct: made in house; host or cells: E. coli host derived from BL21, infected with T7 phage
In short: (§1)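 Kinases expressed as T7 phage fusions are mixed with ligand-coated magnetic beads and compound (0.9% DMSO), then shaken 1 h at room temperature. After washing, bound kinase is eluted with free ligand for 30 min and measured by qPCR; Kd is obtained by Hill-equation fitting.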

FGFR3 = target: T2, FGFR3 (Homo sapiens, UniProt P22607); assay: Kinase binding assay (Kd), FGFR3; conditions: 11-point 3-fold dilution, qPCR readout
T2 construct: made in house; host or cells: E. coli host derived from BL21, infected with T7 phage
In short: as §1

FGFR4 = target: T3, FGFR4 (Homo sapiens, UniProt P22455); assay: Kinase binding assay (Kd), FGFR4; conditions: 11-point 3-fold dilution, qPCR readout
T3 construct: made in house; host or cells: E. coli host derived from BL21, infected with T7 phage
In short: as §1

FGFR3 (V555M) = target: T4, FGFR3 (V555M) (Homo sapiens, UniProt P22607, V555M); assay: Kinase binding assay (Kd), FGFR3 (V555M); conditions: 11-point 3-fold dilution, qPCR readout
T4 construct: made in house; host or cells: E. coli host derived from BL21, infected with T7 phage
In short: as §1

FGFR2 = target: T5, FGFR2 (Homo sapiens, UniProt P21802); assay: Kinase binding assay (Kd), FGFR2; conditions: 11-point 3-fold dilution, qPCR readout
T5 construct: made in house; host or cells: E. coli host derived from BL21, infected with T7 phage
In short: as §1

T4 sequence (P22607 23-806 V555M): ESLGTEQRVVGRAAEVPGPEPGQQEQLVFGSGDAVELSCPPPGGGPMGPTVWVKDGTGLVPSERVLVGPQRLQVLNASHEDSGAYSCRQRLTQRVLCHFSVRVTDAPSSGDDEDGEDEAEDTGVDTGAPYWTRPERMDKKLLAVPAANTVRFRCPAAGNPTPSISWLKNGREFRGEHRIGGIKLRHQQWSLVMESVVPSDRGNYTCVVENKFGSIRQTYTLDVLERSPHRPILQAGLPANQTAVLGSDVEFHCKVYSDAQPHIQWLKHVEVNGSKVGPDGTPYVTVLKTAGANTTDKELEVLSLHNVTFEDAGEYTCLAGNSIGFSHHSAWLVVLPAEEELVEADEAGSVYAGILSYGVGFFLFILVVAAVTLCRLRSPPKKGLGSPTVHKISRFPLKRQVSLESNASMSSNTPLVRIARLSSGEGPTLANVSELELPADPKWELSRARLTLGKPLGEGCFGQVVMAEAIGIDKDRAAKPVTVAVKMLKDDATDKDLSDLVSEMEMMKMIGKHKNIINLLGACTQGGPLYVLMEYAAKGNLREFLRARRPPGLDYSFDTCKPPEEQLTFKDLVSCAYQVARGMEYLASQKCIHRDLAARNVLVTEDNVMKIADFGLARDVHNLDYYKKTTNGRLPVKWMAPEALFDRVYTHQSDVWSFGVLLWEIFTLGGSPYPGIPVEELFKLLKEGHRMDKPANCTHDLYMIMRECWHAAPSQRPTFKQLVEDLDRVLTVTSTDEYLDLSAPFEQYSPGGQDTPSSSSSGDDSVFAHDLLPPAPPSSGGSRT
T2 sequence (P22607 23-806): as the sequence (P22607 23-806 V555M) above, with M533V counted along it
T3 sequence (P22455 22-802): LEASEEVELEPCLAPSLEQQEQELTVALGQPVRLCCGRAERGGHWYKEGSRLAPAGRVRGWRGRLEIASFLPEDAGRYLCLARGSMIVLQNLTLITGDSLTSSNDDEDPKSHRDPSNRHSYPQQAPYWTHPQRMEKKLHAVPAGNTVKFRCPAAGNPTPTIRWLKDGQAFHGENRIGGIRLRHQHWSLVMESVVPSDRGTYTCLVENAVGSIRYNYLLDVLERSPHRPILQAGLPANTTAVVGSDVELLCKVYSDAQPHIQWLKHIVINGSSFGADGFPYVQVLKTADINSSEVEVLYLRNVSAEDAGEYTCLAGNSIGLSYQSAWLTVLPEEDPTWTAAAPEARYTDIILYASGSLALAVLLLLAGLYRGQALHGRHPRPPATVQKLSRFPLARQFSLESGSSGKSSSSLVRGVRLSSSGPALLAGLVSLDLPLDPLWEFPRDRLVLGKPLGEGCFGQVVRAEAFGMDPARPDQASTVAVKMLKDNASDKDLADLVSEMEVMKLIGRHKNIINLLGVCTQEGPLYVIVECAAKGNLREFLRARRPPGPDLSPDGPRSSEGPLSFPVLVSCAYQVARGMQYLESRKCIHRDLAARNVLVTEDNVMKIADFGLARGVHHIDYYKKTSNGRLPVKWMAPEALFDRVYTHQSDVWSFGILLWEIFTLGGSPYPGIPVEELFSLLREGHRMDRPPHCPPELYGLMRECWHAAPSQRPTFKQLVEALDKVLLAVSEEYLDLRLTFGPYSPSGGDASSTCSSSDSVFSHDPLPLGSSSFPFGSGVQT
T5 sequence (P21802 22-821): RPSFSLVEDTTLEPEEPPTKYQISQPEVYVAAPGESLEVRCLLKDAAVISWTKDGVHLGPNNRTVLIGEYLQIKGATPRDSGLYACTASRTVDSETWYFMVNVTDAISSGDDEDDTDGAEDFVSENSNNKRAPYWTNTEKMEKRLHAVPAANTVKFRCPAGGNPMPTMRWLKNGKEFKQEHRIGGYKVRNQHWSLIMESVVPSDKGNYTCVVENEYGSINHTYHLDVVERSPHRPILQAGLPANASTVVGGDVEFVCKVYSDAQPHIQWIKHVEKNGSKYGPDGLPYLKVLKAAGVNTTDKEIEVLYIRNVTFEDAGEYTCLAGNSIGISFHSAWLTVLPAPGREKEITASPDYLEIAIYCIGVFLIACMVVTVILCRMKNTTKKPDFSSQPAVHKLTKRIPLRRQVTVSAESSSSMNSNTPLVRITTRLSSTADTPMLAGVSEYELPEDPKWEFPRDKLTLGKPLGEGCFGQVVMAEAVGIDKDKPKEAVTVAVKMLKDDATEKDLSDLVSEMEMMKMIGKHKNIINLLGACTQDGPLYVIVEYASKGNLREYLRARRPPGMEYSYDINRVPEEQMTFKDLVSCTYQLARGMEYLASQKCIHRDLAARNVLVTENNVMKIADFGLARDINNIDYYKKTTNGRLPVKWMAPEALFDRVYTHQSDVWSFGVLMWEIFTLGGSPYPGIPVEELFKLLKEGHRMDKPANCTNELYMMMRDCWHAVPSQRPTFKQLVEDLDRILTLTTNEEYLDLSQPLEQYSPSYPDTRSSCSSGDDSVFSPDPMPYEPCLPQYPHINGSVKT
T1 sequence (P11362 22-822): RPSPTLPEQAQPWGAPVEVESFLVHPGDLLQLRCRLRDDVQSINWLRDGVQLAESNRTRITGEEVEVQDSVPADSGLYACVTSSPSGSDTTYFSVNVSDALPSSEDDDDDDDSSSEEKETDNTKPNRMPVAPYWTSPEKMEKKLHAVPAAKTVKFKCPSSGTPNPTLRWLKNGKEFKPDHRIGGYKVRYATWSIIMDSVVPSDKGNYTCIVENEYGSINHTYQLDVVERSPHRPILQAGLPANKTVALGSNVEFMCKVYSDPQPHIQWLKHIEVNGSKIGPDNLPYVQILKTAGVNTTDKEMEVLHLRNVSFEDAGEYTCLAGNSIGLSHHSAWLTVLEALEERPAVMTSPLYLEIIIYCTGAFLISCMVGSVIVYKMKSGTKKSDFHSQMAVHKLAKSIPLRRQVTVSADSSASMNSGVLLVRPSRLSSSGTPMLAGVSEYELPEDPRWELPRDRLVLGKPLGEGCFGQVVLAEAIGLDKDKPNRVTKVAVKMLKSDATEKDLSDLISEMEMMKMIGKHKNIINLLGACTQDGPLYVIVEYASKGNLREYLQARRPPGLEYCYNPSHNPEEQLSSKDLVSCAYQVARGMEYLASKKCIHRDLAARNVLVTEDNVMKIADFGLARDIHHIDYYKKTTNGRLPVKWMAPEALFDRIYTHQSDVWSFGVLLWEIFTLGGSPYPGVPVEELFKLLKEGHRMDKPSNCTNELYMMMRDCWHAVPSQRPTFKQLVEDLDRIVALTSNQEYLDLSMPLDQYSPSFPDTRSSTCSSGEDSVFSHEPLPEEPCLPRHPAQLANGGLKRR

Row | IC50 [1] [nM] | IC50 [2] [nM] | Kd (FGFR1) [nM] | Kd (FGFR3) [nM] | Kd (FGFR4) [nM] | Kd (FGFR3 (V555M)) [nM] | Kd (FGFR2) [nM] | Structure (SMILES)
1 | 4 | 16 | 14 | 3.5 | 42 | 1.7 | 3.2 | C=CC(=O)Nc1ccc2c(c1)c(C)cn2-c1nc(Nc2ccc(N=S(C)(C)=O)c(F)c2)ncc1Cl [Example 60, N-[1-[5-Chloro-2-[4-[[dimethyl(oxo)-λ^6-sulfanylidene]amino]-3-fluoro-anilino]pyrimidin-4-yl]-3-methyl-indol-5-yl]prop-2-enamide]
2 | 6 | 23 | 21 | 6 | 100 | 2 | 6 | C=CC(=O)Nc1ccc2c(c1)c(C)cn2-c1nc(Nc2ccc(N=S(C)(C)=O)cc2)ncc1Cl [Example 61, N-[1-[5-Chloro-2-[4-[[dimethyl(oxo)-λ^6-sulfanylidene]amino]anilino]pyrimidin-4-yl]-3-methyl-indol-5-yl]prop-2-enamide]
3 | 17 | 64 | 79 | 20 | 170 | 11 | 16 | C=CC(=O)Nc1ccc2c(c1)c(C)cn2-c1nc(Nc2ccc(N=S(C)(C)=O)c(F)c2)ncc1C#N [Example 62, N-[1-[5-Cyano-2-[4-[[dimethyl(oxo)-λ^6-sulfanylidene]amino]-3-fluoro-anilino]pyrimidin-4-yl]-3-methyl-indol-5-yl]prop-2-enamide]
4 | 1 | 8 | 10 | 3 | 39 | 1 | 3 | C=CC(=O)Nc1ccc2c(c1)c(C)cn2-c1nc(Nc2ccc(N=S(C)(C)=O)c(F)c2)ncc1C [Example 63, N-[1-[2-[4-[[dimethyl(oxo)-λ^6-sulfanylidene]amino]-3-fluoro-anilino]-5-methyl-pyrimidin-4-yl]-3-methyl-indol-5-yl]prop-2-enamide]
5 | 1 | 12 | 5 | 4 | 59 | 1 | 4 | C=CC(=O)Nc1ccc2c(c1)c(C)cn2-c1nc(Nc2ccc(N=S(C)(C)=O)c(OC)c2)ncc1Cl [Example 64, N-[1-[5-Chloro-2-[4-[[dimethyl(oxo)-λ^6-sulfanylidene]amino]-3-methoxy-anilino]pyrimidin-4-yl]-3-methyl-indol-5-yl]prop-2-enamide]
6 | 20 | 113 | 61 | 21 | 680 | 5.3 | 37 | C=CC(=O)Nc1ccc2c(ccn2-c2nc(Nc3ccc(N=S(C)(C)=O)cc3)ncc2Cl)c1 [Example 66, N-[1-[5-chloro-2-[4-[[dimethyl(oxo)-λ^6-sulfanylidene]amino]anilino]-pyrimidin-4-yl]indol-5-yl]prop-2-enamide]
7 | 9 | 159 | 230 | 21 | 370 | 9.2 | 25 | C=CC(=O)Nc1ccc2c(ccn2-c2nc(Nc3ccc(S(C)(=N)=O)cc3)ncc2Cl)c1 (centres unmarked) [Example 70, N-[1-[5-Chloro-2-[4-(methylsulfonimidoyl)anilino]-pyrimidin-4-yl]indol-5-yl]prop-2-enamide]
8 | 5 | 47 | 63 | 12 | 230 | 3 | 13 | C=CC(=O)Nc1ccc2c(-c3nc(Nc4ccc(N=S(C)(C)=O)cc4)ncc3Cl)cn(C)c2c1 [Example 92, N-[3-[5-chloro-2-[4-[[dimethyl(oxo)-λ^6-sulfanylidene]amino]anilino]pyrimidin-4-yl]-1-methyl-indol-6-yl]prop-2-enamide]
